28 molecules from patent US11077100B2, “Tetrahydroquinoline derivatives as P2X7 receptor antagonists” (RaQualia Pharma Inc., priority 2017, dated 2021) can be followed below.

Where only a bound is given, the exact number is not on record here.

One test has as its target human P2X7 (Homo sapiens (Human), UniProt Q99572). Description: Human P2X7 functional assay (Ca2+ influx, Fluo-4, FDSS). The note with it: antagonistic activity with respect to the human P2X7 receptor; BzATP final concentration 80 microM. It counts as cell-based. In outline:
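Ca2+ influx was triggered with BzATP (80 μM final) after a 10-min room-temperature compound preincubation and monitored with Fluo-4 (ex 480/em 540 nm) on FDSS. The cells were HEK293 stably carrying FLAG-tagged human P2X7. Duplicate-averaged 7-point dose-responses gave IC50s.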

A further test has as its target rat P2X7 (Rattus norvegicus (Rat), UniProt Q64663). Description: Rat P2X7 functional assay (Ca2+ influx, Fluo-4, FDSS). Type of test: cell-based. As to conditions: HEK293 cells stably expressing rat P2X7; BzATP final 10 microM; 7-point dose-response; read-out: Antagonistic activities with respect to the rat P2X7 receptor (IC50). Summed up: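 IC50 derived from 7-point dose-response in duplicate, measuring inhibition of BzATP-evoked (final 10 microM) intracellular Ca2+ increase by Fluo-4 fluorescence on FDSS. Rat P2X7-HEK293 cells were exposed to compound for 10 min in the dark beforehand.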

rat P2X7, sequence (Q64663 whole entry): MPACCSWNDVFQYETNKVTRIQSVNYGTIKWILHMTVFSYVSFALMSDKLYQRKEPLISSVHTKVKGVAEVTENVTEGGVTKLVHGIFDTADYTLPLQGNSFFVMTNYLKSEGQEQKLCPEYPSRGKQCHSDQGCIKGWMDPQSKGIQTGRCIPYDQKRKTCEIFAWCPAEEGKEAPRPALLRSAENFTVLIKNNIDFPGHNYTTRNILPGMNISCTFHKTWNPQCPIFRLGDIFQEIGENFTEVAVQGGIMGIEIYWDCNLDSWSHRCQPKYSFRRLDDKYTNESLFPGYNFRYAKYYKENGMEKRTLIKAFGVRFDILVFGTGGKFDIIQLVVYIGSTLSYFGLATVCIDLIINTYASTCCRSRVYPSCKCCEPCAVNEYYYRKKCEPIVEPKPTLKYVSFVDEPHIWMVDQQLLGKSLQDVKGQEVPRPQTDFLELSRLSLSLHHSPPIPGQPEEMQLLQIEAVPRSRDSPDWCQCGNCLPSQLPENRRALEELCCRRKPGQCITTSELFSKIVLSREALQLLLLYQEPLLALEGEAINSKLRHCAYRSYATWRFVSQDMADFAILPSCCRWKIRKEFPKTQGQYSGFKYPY
human P2X7, sequence (Q99572 whole entry): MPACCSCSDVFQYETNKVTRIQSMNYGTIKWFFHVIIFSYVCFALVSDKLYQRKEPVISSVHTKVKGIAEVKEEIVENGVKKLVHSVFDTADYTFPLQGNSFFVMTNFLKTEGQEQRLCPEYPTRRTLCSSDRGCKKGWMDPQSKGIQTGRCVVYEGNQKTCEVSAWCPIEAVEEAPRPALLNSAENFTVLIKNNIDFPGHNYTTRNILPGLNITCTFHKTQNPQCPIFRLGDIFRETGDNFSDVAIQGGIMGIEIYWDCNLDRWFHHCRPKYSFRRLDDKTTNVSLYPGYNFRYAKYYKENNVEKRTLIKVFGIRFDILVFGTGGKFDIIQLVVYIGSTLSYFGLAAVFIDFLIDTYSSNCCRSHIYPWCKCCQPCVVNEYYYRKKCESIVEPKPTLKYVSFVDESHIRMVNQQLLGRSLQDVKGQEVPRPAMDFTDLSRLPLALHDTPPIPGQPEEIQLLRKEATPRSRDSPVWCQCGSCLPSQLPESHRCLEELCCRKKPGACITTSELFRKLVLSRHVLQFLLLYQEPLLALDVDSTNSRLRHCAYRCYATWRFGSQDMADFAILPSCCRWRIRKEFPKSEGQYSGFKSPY

One may read the IC50 as the concentration at which inhibition is half-maximal. Consider `Cc1ccc(CNC(=O)[C@]2(F)CC[C@H](O)c3ncccc32)c(Cl)c1` [Example 167, (5S,8S)-N-(2-chloro-4-methylbenzyl)-5-fluoro-8-hydroxy-5,6,7,8-tetrahydroquinoline-5-carboxamide], for which the IC50 at human P2X7 is under 50 nM; on rat P2X7 it was under 1000 nM.
In the same order, the values of `CC1(O)CN(C[C@]2(O)CC[C@@](F)(C(=O)NCc3ccc(F)cc3Cl)c3cccnc32)C1` (relative stereo) [Example 54, (5S*,8R*)-N-(2-chloro-4-fluorobenzyl)-5-fluoro-8-hydroxy-8-((3-hydroxy-3-methylazetidin-1-yl)methyl)-5,6,7,8-tetra-hydroquinoline-5-carboxamide] are under 50 nM and under 1000 nM.
In the case of `C[C@]1(O)CC[C@@](F)(C(=O)NCc2ccc(F)c(F)c2F)c2cccnc21` [Example 258, (5S,8S)-5-fluoro-8-hydroxy-8-methyl-N-(2,3,4-trifluorobenzyl)-5,6,7,8-tetrahydroquinoline-5-carboxamide], the IC50 was under 50 nM on human P2X7 and under 1000 nM on rat P2X7.
In the same order, the values of `O=C(NCc1c(F)cccc1Cl)[C@]1(F)CC[C@H](O)c2ncccc21` [Example 171, (5S,8S)-N-(2-chloro-6-fluorobenzyl)-5-fluoro-8-hydroxy-5,6,7,8-tetrahydroquinoline-5-carboxamide] are under 50 nM and under 1000 nM.
Regarding `Cc1cc(Cl)cc(Cl)c1CNC(=O)[C@@H]1CC[C@@H](O)c2ncccc21` [Example 84, (5R,8R)-N-(2,4-dichloro-6-methylbenzyl)-8-hy-droxy-5,6,7,8-tetrahydro-quinoline-5-carboxamide], the values for the IC50 against human P2X7 and on rat P2X7 were under 50 nM and under 1000 nM, respectively.
As to `O=C(NCc1ccc(F)c(F)c1F)[C@]1(F)CC[C@](O)(CO)c2ncccc21` [Example 309, (5S,8R)-5-fluoro-8-hydroxy-8-(hydroxymethyl)-N-(2,3,4-trifluorobenzyl)-5,6,7,8-tetrahydroquinoline-5-carboxamide], the IC50 at human P2X7 is 1000 to 3000 nM; on rat P2X7 it was under 1000 nM.
Regarding `O=C(NCc1c(Cl)cccc1Cl)[C@]1(F)CC[C@H](O)c2ncccc21` [Example 139, (5S,8S)-N-(2,6-dichlorobenzyl)-5-fluoro-8-hydroxy-5,6,7,8-tetrahydroquinoline-5-carboxamide], the IC50 was under 50 nM at human P2X7 and under 1000 nM on rat P2X7.
As for `O=C1CC[C@](F)(C(=O)NCc2cccc(C(F)(F)F)c2Cl)c2cccnc21` [Example 246, (R)-N-(2-chloro-3-(trifluoromethyl)benzyl)-5-fluoro-8-oxo-5,6,7,8-tetrahydroquinoline-5-carboxamide], the IC50 is under 50 nM on human P2X7 and under 1000 nM at rat P2X7.
In the same order, the values of `O=C(NCc1ccc(Cl)cc1F)[C@]1(F)CC[C@@H](O)c2ncccc21` [Example 111, (5S,8R)-N-(4-chloro-2-fluorobenzyl)-5-fluoro-8-hydroxy-5,6,7,8-tetrahydroquinoline-5-carboxamide] are 301 to 1000 nM and under 1000 nM.
In the same order, the values of `O=C(NCc1cccc(C(F)(F)F)c1Cl)[C@@]1(F)CC[C@H](F)c2ncccc21` [Example 352, (5R,8S)-N-(2-chloro-3-(trifluoromethyl)benzyl)-5,8-difluoro-5,6,7,8-tetrahydroquinoline-5-carboxamide] are under 50 nM and under 1000 nM.
Taken in the same sequence, the figures for `O=C(NCc1ccc(Cl)cc1Cl)[C@@]1(F)CC[C@@](O)(CO)c2ncccc21` [Example 303, (5R,8S)-N-(2,4-dichlorobenzyl)-5-fluoro-8-hydroxy-8-(hydroxymethyl)-5,6,7,8-tetrahydroquinoline-5-carboxamide] were 1000 to 3000 nM and under 1000 nM.
`O=C(NCc1c(Cl)cc(Cl)cc1CO)[C@]1(F)CC[C@@](O)(CO)c2ncccc21` [Example 316, (5S,8S)-N-(2,4-dichloro-6-(hydroxymethyl)benzyl)-5-fluoro-8-hydroxy-8-(hydroxymethyl)-5,6,7,8-tetrahydroquinoline-5-carboxamide]: the results for the IC50 against human P2X7 and at rat P2X7 were under 50 nM and under 1000 nM, respectively.
In the same order, the values of `N#CC[C@]1(O)CC[C@@](F)(C(=O)NCc2c(Cl)cc(Cl)cc2CO)c2cccnc21` [Example 283] are under 50 nM and under 1000 nM.
Taken in the same sequence, the figures for `O=C(NCc1cc(F)cc(F)c1)[C@]1(F)CC[C@H](O)c2ncccc21` [Example 221, (5S,8S)-N-(3,5-difluorobenzyl)-5-fluoro-8-hydroxy-5,6,7,8-tetrahydroquinoline-5-carboxamide] were 301 to 1000 nM and under 1000 nM.
Take `C[C@H](NC(=O)[C@]1(F)CC[C@H](O)c2ncccc21)c1ccc(Cl)c(Cl)c1Cl` [Example 168, (5S,8S)-5-fluoro-8-hydroxy-N-((S)-1-(2,3,4-trichlorophenyl)ethyl)-5,6,7,8-tetrahydroquinoline-5-carboxamide]: the IC50 at human P2X7 is 101 to 300 nM; on rat P2X7, under 1000 nM.
On to `O=C(NCc1ccc(F)cc1Cl)[C@]1(F)CC[C@@](O)(CSCCO)c2ncccc21` [Example 289, (5S,8S)-N-(2-chloro-4-fluorobenzyl)-5-fluoro-8-hydroxy-8-(((2-hydroxyethyl)thio)methyl)-5,6,7,8-tetrahydroquinoline-5-carboxamide], for which the figures for the IC50 against human P2X7 and at rat P2X7 were under 50 nM and under 1000 nM, respectively.
Taken in the same sequence, the figures for `O=C(NCc1ccc(F)cc1Cl)[C@]1(F)CC[C@H](O)c2ncc(F)cc21` [Example 242, (5S,8S)-N-(2-chloro-4-fluorobenzyl)-3,5-difluoro-8-hydroxy-5,6,7,8-tetrahydroquinoline-5-carboxamide] were under 50 nM and under 1000 nM.
In the case of `O=C1CO[C@]2(CC[C@@](F)(C(=O)NCc3ccc(Cl)cc3Cl)c3cccnc32)CN1` [Example 295, (2R,5′S)-N-(2,4-dichlorobenzyl)-5′-fluoro-5-oxo-6′,7′-dihydro-5′H-spiro [morpholine-2,8′-quinoline]-5′-carboxamide], the IC50 was under 50 nM at human P2X7 and under 1000 nM at rat P2X7.
Turning to `O=C(NCc1c(Cl)ccc(Cl)c1Cl)[C@]1(F)CC[C@H](O)c2ncccc21` [Example 165, (5S,8S)-5-fluoro-8-hydroxy-N-(2,3,6-trichlorobenzyl)-5,6,7,8-tetrahydroquinoline-5-carboxamide], the IC50 at human P2X7 was under 50 nM; on rat P2X7, under 1000 nM.
`O=C1CC[C@@](F)(C(=O)NCc2ccc(F)cc2Cl)c2cccnc21` [Example 249, (S)-N-(2-chloro-4-fluorobenzyl)-5-fluoro-8-oxo-5,6,7,8-tetra-hydroquinoline-5-carboxamide]: the IC50 on human P2X7 is 50 to 100 nM; at rat P2X7, under 1000 nM.
Take `O=C(NCc1ccc(Cl)c(F)c1Cl)[C@]1(F)CC[C@@](O)(CO)c2ncccc21` [Example 319, (5S,8S)-N-(2,4-dichloro-3-fluorobenzyl)-5-fluoro-8-hydroxy-8-(hydroxymethyl)-5,6,7,8-tetrahydroquinoline-5-carboxamide]: the IC50 on human P2X7 is under 50 nM; at rat P2X7, under 1000 nM.
`CC(NC(=O)[C@]1(F)CC[C@H](O)c2ncccc21)C12CC3CC(CC(C3)C1)C2` (stereo partly drawn) [Example 231, (5S,8S)-N-(1-(adamantan-1-yl)ethyl)-5-fluoro-8-hydroxy-5,6,7,8-tetrahydroquinoline-5-carboxamide]: the IC50 on human P2X7 is under 50 nM; on rat P2X7, under 1000 nM.
Take `O=C(NCc1ccc(Cl)cc1Cl)[C@]1(F)CC[C@H](O)c2c1ccc[n+]2[O-]` [Example 245, (5S,8S)-5-((2,4-dichlorobenzyl)carbamoyl)-5-fluoro-8-hydroxy-5,6,7,8-tetrahydroquinoline 1-oxide]: the IC50 on human P2X7 is under 50 nM; at rat P2X7, under 1000 nM.
In the same order, the values of `O=C(NCc1ccc(F)cc1Cl)[C@]1(F)CC[C@@](O)(CF)c2ncccc21` [Example 286, (5S,8S)-N-(2-chloro-4-fluorobenzyl)-5-fluoro-8-(fluoromethyl)-8-hydroxy-5,6,7,8-tetrahydroquinoline-5-carboxamide] are under 50 nM and under 1000 nM.
As to `COC1(C)CN(C[C@]2(O)CC[C@@](F)(C(=O)NCc3ccc(F)cc3Cl)c3cccnc32)C1` (relative stereo) [Example 55, (5S*,8R*)-N-(2-chloro-4-fluorobenzyl)-5-fluoro-8-hydroxy-8-((3-methoxy-3-methylazetidin-1-yl)methyl)-5,6,7,8-tetra-hydroquinoline-5-carboxamide], the results for the IC50 at human P2X7 and on rat P2X7 were under 50 nM and under 1000 nM, respectively.
With `O=C(NCc1cccc(Cl)c1Cl)C1CCC(O)c2ncccc21` (centres unmarked) [Example 8, N-(2,3-dichlorobenzyl)-8-hydroxy-5,6,7,8-tetra hydroquinoline-5-carboxamide], the IC50 against human P2X7 was under 50 nM; at rat P2X7, under 1000 nM.
Taken in the same sequence, the figures for `CNCC1(O)CCC(F)(C(=O)NCc2c(C)cc(Cl)cc2Cl)c2cccnc21` (centres unmarked) [Example 46, N-(2,4-dichloro-6-methylbenzyl)-5-fluoro-8-hydroxy-8-((methyl-amino)methyl)-5,6,7,8-tetra-hydroquinoline-5-carboxamide] were under 50 nM and under 1000 nM.
In the same order, the values of `CS(=O)(=O)C[C@]1(O)CC[C@@](F)(C(=O)NCc2ccc(Cl)cc2Cl)c2cccnc21` [Example 298, (5S,8S)-N-(2,4-dichlorobenzyl)-5-fluoro-8-hydroxy-8-((methylsulfonyl)methyl)-5,6,7,8-tetrahydroquinoline-5-carboxamide] are under 50 nM and under 1000 nM.
